Reference: patent US12312359B2 (Vitae Pharmaceuticals, LLC, priority 2016, dated 2025)

Columns and labels:
[1] = Water activity analysis (slurries) of sesquifumaric acid salt forms; assay type: physicochemical; conditions: for Result (solid form after water activity slurry): ambient, 7 days
[2] = Physical stability analysis of sesquifumaric acid salt forms (drying, heating); assay type: physicochemical
[3] = target: T1, biotinylated wild-type menin and MLL-AF9 fusion protein (menin/MLL binding) (Homo sapiens, UniProt O00255); assay: Assay 1: menin/MLL binding AlphaLISA assay, wild-type menin; conditions: Table 30; column head does not say wild-type or mutated menin
T1 construct: made in house; host or cells: menin: E. coli; MLL-AF9-FLAG: HEK293 cells, used as cleared lysate
T1 sequence (O00255 1-610): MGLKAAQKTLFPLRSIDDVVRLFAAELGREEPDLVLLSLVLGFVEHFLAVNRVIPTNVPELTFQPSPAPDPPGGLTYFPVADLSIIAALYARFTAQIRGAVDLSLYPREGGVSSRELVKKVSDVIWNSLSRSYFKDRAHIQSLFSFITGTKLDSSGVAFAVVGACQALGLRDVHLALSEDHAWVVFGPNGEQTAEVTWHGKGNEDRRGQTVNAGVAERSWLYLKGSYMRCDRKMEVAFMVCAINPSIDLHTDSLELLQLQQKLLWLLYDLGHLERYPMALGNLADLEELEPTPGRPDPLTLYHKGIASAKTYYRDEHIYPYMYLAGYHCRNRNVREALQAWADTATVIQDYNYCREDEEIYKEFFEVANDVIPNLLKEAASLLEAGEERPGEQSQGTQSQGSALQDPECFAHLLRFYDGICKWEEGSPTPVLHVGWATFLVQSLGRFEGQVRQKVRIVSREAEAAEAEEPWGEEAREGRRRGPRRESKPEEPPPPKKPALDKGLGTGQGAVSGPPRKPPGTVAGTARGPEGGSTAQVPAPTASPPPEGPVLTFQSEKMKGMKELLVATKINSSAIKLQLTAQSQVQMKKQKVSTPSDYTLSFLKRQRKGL
In short: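 Compound was preincubated 30 min at room temperature with biotinylated menin (5 nM) and MLL-AF9-FLAG lysate from HEK293 cells, pH 7.4 buffer with 5% DMSO and DTT. Bead-based Alpha signal after 60 min with streptavidin donor and anti-FLAG acceptor beads; four-parameter logistic fit gave IC50.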

[4] = tested on: human acute monocytic leukemia cell line MV-4-11; assay: Assay 2: cell proliferation assay (ATP quantitation, CellTiter-Glo), MV-4-11; assay type: cell-based; conditions: Homo sapiens, MV4-11, 72 h, MV-4-11 cells
In short: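 Read-out is CellTiter-Glo luminescence quantifying ATP. Compound exposure lasted 72 h at 37° C., 5% CO2, with 1.67×10^4 MV-4-11 cells per well in 10% FBS medium, alongside HL-60 toxicity-control cells.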

Row | SMILES | IC50 [3] [nM] | EC50 [4] [nM] | also measured
1 | CC(C)N(C(=O)c1cc(F)ccc1Oc1cncnc1N1CC2(CCN(C[C@H]3CC[C@H](NS(C)(=O)=O)CC3)CC2)C1)C(C)C.CC(C)N(C(=O)c1cc(F)ccc1Oc1cncnc1N1CC2(CCN(C[C@H]3CC[C@H](NS(C)(=O)=O)CC3)CC2)C1)C(C)C.O=C(O)/C=C/C(=O)O.O=C(O)/C=C/C(=O)O.O=C(O)/C=C/C(=O)O [Form F, 5-fluoro-N,N-diisopropyl-2-((4-(7-(((1r,4r)-4-(methylsulfonamido)cyclohexyl)methyl)-2,7-diazaspiro[3.5]nonan-2-yl)pyrimidin-5-yl)oxy)benzamide sesquifumaric acid salt] |  |  | Form conversion when slurried in ACN/water mixture ([1]; slurried in ACN/water mixture): Conversion to Form A was observed
2 | CC(C)N(C(=O)c1cc(F)ccc1Oc1cncnc1N1CC2(CCN(CC3CCC(NS(C)(=O)=O)CC3)CC2)C1)C(C)C.CC(C)N(C(=O)c1cc(F)ccc1Oc1cncnc1N1CC2(CCN(CC3CCC(NS(C)(=O)=O)CC3)CC2)C1)C(C)C.O=C(O)/C=C/C(=O)O.O=C(O)/C=C/C(=O)O.O=C(O)/C=C/C(=O)O (centres unmarked) |  |  | Result (solid form after water activity slurry) ([1]; H2O/ACN, water activity 0.38 (2 vol % H2O)): Form A; Result (solid form after water activity slurry) ([1]; H2O/ACN, water activity 0.60 (4 vol % H2O)): Form A; Result (solid form after water activity slurry) ([1]; H2O/IPA, water activity 0.50 (6 vol % H2O)): Form A; Result (solid form after water activity slurry) ([1]; H2O/IPA, water activity 0.70 (11 vol % H2O)): Form A; Result (solid form after water activity slurry) ([1]; H2O/IPA, water activity 0.96 (50 vol % H2O)): Form A; Result (solid form after water activity slurry) ([1]; H2O/acetone, water activity 0.22 (1 vol % H2O)): Form A; Result (solid form after water activity slurry) ([1]; H2O/acetone, water activity 0.44 (3 vol % H2O)): Form A; Result (solid form after water activity slurry) ([1]; H2O/acetone, water activity 0.80 (18 vol % H2O)): Form A; Result (solid form after water activity slurry) ([1]; H2O/acetone, water activity 0.91 (50 vol % H2O)): Form A
3 | CC(C)N(C(=O)c1cc(F)ccc1Oc1cncnc1N1CC2(CCN(C[C@H]3CC[C@H](NS(C)(=O)=O)CC3)CC2)C1)C(C)C.CC(C)N(C(=O)c1cc(F)ccc1Oc1cncnc1N1CC2(CCN(C[C@H]3CC[C@H](NS(C)(=O)=O)CC3)CC2)C1)C(C)C.O=C(O)/C=C/C(=O)O.O=C(O)/C=C/C(=O)O.O=C(O)/C=C/C(=O)O [Form E, 5-fluoro-N,N-diisopropyl-2-((4-(7-(((1r,4r)-4-(methylsulfonamido)cyclohexyl)methyl)-2,7-diazaspiro[3.5]nonan-2-yl)pyrimidin-5-yl)oxy)benzamide sesquifumaric acid salt] |  |  | Form change after 45° C. vacuum oven ([2]; 45° C. vacuum oven): No changes observed in XRPD; Result (solid form after physical stability stress) ([2]; 45° C. vacuum, 1 day): Form E
4 | CC(C)N(C(=O)c1cc(F)ccc1Oc1cncnc1N1CC2(CCN(CC3CC3)C2)C1)C(C)C [Example 103, 2-((4-(6-(cyclopropylmethyl)-2,6-diazaspiro [3.4]octan-2-yl)pyrimidin-5-yl)oxy)-5-fluoro-N,N-diisopropylbenzamide] | < 100 | 100 to 1000 | 
5 | NS(=O)(=O)c1ccc2c(c1)CC(C(=O)N1CC3(C1)CN(c1ncncc1Oc1ccc(F)cc1Cl)C3)C2 (centres unmarked) [Example 40, 2-(6-(5-(2-chloro-4-fluorophenoxy)pyrimidin-4-yl)-2,6-diazaspiro[3.3]heptane-2-carbonyl)-2,3-dihydro-1H-indene-5-sulfonamide] | 100 to 1000 | ≥ 1000 | 
6 | CC(C)c1ncncc1-c1cc(F)ccc1Oc1cncnc1N1CC2(CC(N(C)Cc3ccc(C#N)cc3)CO2)C1 (centres unmarked) [Example 181, 4-(((2-(5-(4-fluoro-2-(4-isopropylpyrimidin-5-yl)phenoxy)pyrimidin-4-yl)-5-oxa-2-azaspiro[3.4]octan-7-yl)(methyl)amino)methyl)benzonitrile] | < 100 | 100 to 1000 | 
7 | CCN(C(=O)C(C)C)c1cc(F)ccc1Oc1cncnc1N1CC2(CCN(CC3CCOCC3)C2)C1 [Example 156, N-ethyl-N-(5-fluoro-2-((4-(6-((tetrahydro-2H-pyran-4-yl)methyl)-2,6-diazaspiro[3.4]octan-2-yl)pyrimidin-5-yl)oxy)phenyl)iso-butyramide] | < 100 | 100 to 1000 | 
8 | CCN(C(=O)C(C)C)c1cc(F)ccc1Oc1cncnc1N1CC2(CCN(CC3CCOCC3)CC2)C1 [Example 110, N-ethyl-N-(5-fluoro-2-((4-(7-((tetrahydro-2H-pyran-4-yl)methyl)-2,7-diazaspiro[3.5]nonan-2-yl)pyrimidin-5-yl)oxy)phenyl)iso-butyramide] | < 100 | 100 to 1000 | 

The next lines start with results.

Row | IC50 [3] [nM] | EC50 [4] [nM] | SMILES | also measured
9 | < 100 | < 100 | N#Cc1ccc(-c2cc(F)ccc2Oc2cncnc2N2CCC3(CCN(Cc4ccc5nn[nH]c5c4)C3)C2)c(C2CC2)c1 (centres unmarked) [Example 171, 2′-((4-(7-((1H-benzo[d][1,2,3]triazol-6-yl)methyl)-2,7-diazaspiro[4.4]nonan-2-yl)pyrimidin-5-yl)oxy)-2-cyclopropyl-5′-fluoro-[1,1′-biphenyl]-4-carbonitrile] | 
10 | < 100 | < 100 | CC(C)n1nccc1-c1cc(F)ccc1Oc1cncnc1N1CCC2(CCN(Cc3ccc4[nH]c(=O)[nH]c4c3)C2)C1 (centres unmarked) [Example 237, 5-((7-(5-(4-fluoro-2-(1-isopropyl-1H-pyrazol-5-yl)phenoxy)pyrimidin-4-yl)-2,7-diazaspiro[4.4]nonan-2-yl)methyl)-1,3-dihydro-2H-benzo[d]imidazol-2-one] | 
11 | < 100 | 100 to 1000 | CC1CCCN1C(=O)c1cc(F)ccc1Oc1cncnc1N1CCC2(CCN(Cc3ccc4[nH]c(=O)[nH]c4c3)C2)C1 (centres unmarked) [Example 211, 5-((7-(5-(4-fluoro-2-(2-methylpyrrolidine-1-carbonyl)phenoxy)pyrimidin-4-yl)-2,7-diazaspiro[4.4]nonan-2-yl)methyl)-1,3-dihydro-2H-benzo [d]imidazol-2-one] | 
12 | < 100 | < 100 | CC(C)c1scnc1-c1cc(F)ccc1Oc1cncnc1N1CCC2(CCN(Cc3ccc4[nH]c(=O)[nH]c4c3)C2)C1 (centres unmarked) [Example 190, 5-((7-(5-(4-fluoro-2-(5-isopropylthiazol-4-yl)phenoxy)pyrimidin-4-yl)-2,7-diazaspiro[4.4]nonan-2-yl)methyl)-1,3-dihydro-2H-benzo[d]imidazol-2-one] | 
13 | < 100 | 100 to 1000 | CC(C)C(=O)N(CC(N)=O)c1cc(F)ccc1Oc1cncnc1N1CCC2(CCN(Cc3ccc4[nH]c(=O)[nH]c4c3)C2)C1 (centres unmarked) [Example 73, N-(2-amino-2-oxoethyl)-N-(5-fluoro-2-((4-(7-((2-oxo-2,3-dihydro-1H-benzo[d]imidazol-5-yl)methyl)-2,7-diazaspiro[4.4]nonan-2-yl)pyrimidin-5-yl)oxy)phenyl)isobutyramide] | 
14 | < 100 | < 100 | CCN(C(=O)c1cc(F)ccc1Oc1cncnc1N1CCC2(CCN(Cc3ccc4c(c3)[nH]c(=O)n4CCO)C2)C1)C(C)C (single isomer, unassigned) [Example 4A, N-ethyl-5-fluoro-2-((4-(7-((1-(2-hydroxyethyl)-2-oxo-2,3-dihydro-1H-benzo[d]imidazol-5-yl)methyl)-2,7-diazaspiro[4.4]nonan-2-yl)pyrimidin-5-yl)oxy)-N-isopropylbenzamide] | 
15 | < 100 | < 100 | Cn1c(-c2cc(F)ccc2Oc2cncnc2N2CCC3(CCN(Cc4ccc5[nH]c(=O)[nH]c5c4)C3)C2)c(C2CC2)ccc1=O (single isomer, unassigned) [Example 29A, 5-((7-(5-(2-(3-cyclopropyl-1-methyl-6-oxo-1,6-dihydropyridin-2-yl)-4-fluorophenoxy)pyrimidin-4-yl)-2,7-diazaspiro[4.4]nonan-2-yl)methyl)-1,3-dihydro-2H-benzo[d]imidazol-2-one] | 
16 | < 100 | 100 to 1000 | CC(=O)Nc1ccc(CN2CCC3(CCN(c4ncncc4Oc4ccc(F)cc4-c4ccc(C#N)cc4C4CC4)C3)C2)cc1Cl (centres unmarked) [Example 172, N-(2-chloro-4-((7-(5-((4′-cyano-2′-cyclopropyl-5-fluoro-[1,1′-biphenyl]-2-yl)oxy)pyrimidin-4-yl)-2,7-diazaspiro[4.4]nonan-2-yl)methyl)phenyl) acetamide] | 
